# Measured values published in ChEMBL document CHEMBL3046648, “Herbicidally Active N-(1-Arylethenyl)-2-chloroacetamides Bearing an Alkyloxyalkyl Moiety” (1991).
# Assays:
# Type in all cases: functional
# Poa annua [1] = assay: Herbicidal activity against Poa annua assessed as killing at 10 g/a at 25 degC measured after 2 weeks
# [2] = test system: Amaranthus blitum subsp. oleraceus; assay: Herbicidal activity against Amaranthus blitum subsp. oleraceus assessed as killing at 2.5 g/a at 25 degC measured after 2 weeks
# Poa annua [3] = assay: Herbicidal activity against Poa annua assessed as killing at 2.5 g/a at 25 degC measured after 2 weeks
# Setaria viridis [4] = assay: Herbicidal activity against Setaria viridis (green foxtail) assessed as killing at 10 g/a at 25 degC measured after 2 weeks
# Kummerowia striata [5] = assay: Herbicidal activity against Kummerowia striata assessed as killing at 10 g/a at 25 degC measured after 2 weeks
# Setaria viridis [6] = assay: Herbicidal activity against Setaria viridis (green foxtail) assessed as killing at 2.5 g/a at 25 degC measured after 2 weeks
# Kummerowia striata [7] = assay: Herbicidal activity against Kummerowia striata assessed as killing at 2.5 g/a at 25 degC measured after 2 weeks
# Digitaria ciliaris [8] = assay: Herbicidal activity against Digitaria ciliaris assessed as killing at 10 g/a at 25 degC measured after 2 weeks
# Stellaria media [9] = assay: Herbicidal activity against Stellaria media assessed as killing at 10 g/a at 25 degC measured after 2 weeks
# Stellaria media [10] = assay: Herbicidal activity against Stellaria media assessed as killing at 2.5 g/a at 25 degC measured after 2 weeks
# Digitaria ciliaris [11] = assay: Herbicidal activity against Digitaria ciliaris assessed as killing at 2.5 g/a at 25 degC measured after 2 weeks
# [12] = test system: Amaranthus blitum subsp. oleraceus; assay: Herbicidal activity against Amaranthus blitum subsp. oleraceus assessed as killing at 10 g/a at 25 degC measured after 2 weeks
# [13] = test system: Schoenoplectiella juncoides; assay: Herbicidal activity against Schoenoplectiella juncoides assessed as killing at 10 g/a at 25 degC measured after 3 weeks
# Pontederia vaginalis [14] = assay: Herbicidal activity against Monochoria vaginalis assessed as killing at 10 g/a at 25 degC measured after 3 weeks
# [15] = Herbicidal activity against annual broad-leaf weeds assessed as killing at 10 g/a at 25 degC measured after 3 weeks
# Cyperus difformis [16] = assay: Herbicidal activity against Cyperus difformis assessed as killing at 10 g/a at 25 degC measured after 3 weeks
# [17] = test system: Schoenoplectiella juncoides; assay: Herbicidal activity against Schoenoplectiella juncoides assessed as killing at 1 g/a at 25 degC measured after 3 weeks
# Cyperus difformis [18] = assay: Herbicidal activity against Cyperus difformis assessed as killing at 1 g/a at 25 degC measured after 3 weeks
# Echinochloa oryzicola [19] = assay: Herbicidal activity against Echinochloa oryzicola assessed as killing at 1 g/a at 25 degC measured after 3 weeks
# Pontederia vaginalis [20] = assay: Herbicidal activity against Monochoria vaginalis assessed as killing at 1 g/a at 25 degC measured after 3 weeks
# Echinochloa oryzicola [21] = assay: Herbicidal activity against Echinochloa oryzicola assessed as killing at 10 g/a at 25 degC measured after 3 weeks
# [22] = Herbicidal activity against annual broad-leaf weeds assessed as killing at 1 g/a at 25 degC measured after 3 weeks
smiles,measurement,setting,value
CCc1cccc(CC)c1N(COC)C(=O)CCl [ALACHLOR],Activity,Poa annua [1],100%
same,Activity,[2],80%
same,Activity,Poa annua [3],80%
same,Activity,Setaria viridis [4],100%
same,Activity,Kummerowia striata [5],80%
same,Activity,Setaria viridis [6],80%
same,Activity,Kummerowia striata [7],60%
same,Activity,Digitaria ciliaris [8],100%
same,Activity,Stellaria media [9],80%
same,Activity,Stellaria media [10],40%
same,Activity,Digitaria ciliaris [11],100%
same,Activity,[12],100%
CCOCCN(C(=O)CCl)C(=C(C)C)c1ccccc1 [PETHOXAMID],Activity,[13],100%
same,Activity,Poa annua [1],100%
same,Activity,[2],100%
same,Activity,Poa annua [3],80%
same,Activity,Pontederia vaginalis [14],100%
same,Activity,Setaria viridis [4],100%
same,Activity,[15],100%
same,Activity,Kummerowia striata [5],80%
same,Activity,Setaria viridis [6],100%
same,Activity,Kummerowia striata [7],80%
same,Activity,Digitaria ciliaris [8],100%
same,Activity,Cyperus difformis [16],100%
same,Activity,Stellaria media [9],100%
same,Activity,[17],100%
same,Activity,Stellaria media [10],80%
same,Activity,Cyperus difformis [18],100%
same,Activity,Digitaria ciliaris [11],100%
same,Activity,Echinochloa oryzicola [19],100%
same,Activity,[12],100%
same,Activity,Pontederia vaginalis [20],100%
same,Activity,Echinochloa oryzicola [21],100%
COCCN(C(=O)CCl)C(=C(C)C)c1ccc(Oc2ccccc2)cc1,Activity,[13],100%
same,Activity,Pontederia vaginalis [14],100%
same,Activity,[15],100%
same,Activity,Cyperus difformis [16],100%
same,Activity,[17],60%
same,Activity,Cyperus difformis [18],100%
same,Activity,[22],100%
same,Activity,Echinochloa oryzicola [19],100%
same,Activity,Pontederia vaginalis [20],100%
same,Activity,Echinochloa oryzicola [21],100%
COCCN(C(=O)CCl)C(=C(C)C)c1ccc(SC)cc1,Activity,[13],100%
same,Activity,Pontederia vaginalis [14],100%
same,Activity,[15],100%
same,Activity,Cyperus difformis [16],100%
same,Activity,[17],0%
same,Activity,Cyperus difformis [18],60%
same,Activity,[22],100%
same,Activity,Echinochloa oryzicola [19],40%
same,Activity,Pontederia vaginalis [20],0%
same,Activity,Echinochloa oryzicola [21],100%
COCCCN(C(=O)CCl)C(=C(C)C)c1ccccc1,Activity,[13],100%
same,Activity,Pontederia vaginalis [14],100%
same,Activity,[15],100%
same,Activity,Cyperus difformis [16],100%
same,Activity,[17],40%
same,Activity,Cyperus difformis [18],60%
same,Activity,[22],0%
same,Activity,Echinochloa oryzicola [19],60%
same,Activity,Pontederia vaginalis [20],100%
same,Activity,Echinochloa oryzicola [21],100%
COCCN(C(=O)CCl)C(=C(C)C)c1ccccc1C,Activity,[13],100%
same,Activity,Pontederia vaginalis [14],80%
same,Activity,[15],80%
same,Activity,Cyperus difformis [16],100%
same,Activity,[17],0%
same,Activity,Cyperus difformis [18],80%
same,Activity,[22],80%
same,Activity,Echinochloa oryzicola [19],80%
same,Activity,Pontederia vaginalis [20],0%
same,Activity,Echinochloa oryzicola [21],100%
COCCN(C(=O)CCl)C(=C(C)C)c1ccc(C(C)(C)C)cc1,Activity,[13],100%
same,Activity,Pontederia vaginalis [14],100%
same,Activity,[15],100%
same,Activity,Cyperus difformis [16],100%
same,Activity,[17],60%
same,Activity,Cyperus difformis [18],60%
same,Activity,[22],80%
same,Activity,Echinochloa oryzicola [19],80%
same,Activity,Pontederia vaginalis [20],60%
same,Activity,Echinochloa oryzicola [21],100%
COCCN(C(=O)CCl)C(=C(C)C)c1ccc(C)cc1C,Activity,[13],100%
same,Activity,Pontederia vaginalis [14],100%
same,Activity,[15],80%
same,Activity,Cyperus difformis [16],100%
same,Activity,[17],80%
same,Activity,Cyperus difformis [18],80%
same,Activity,[22],0%
same,Activity,Echinochloa oryzicola [19],60%
same,Activity,Pontederia vaginalis [20],0%
same,Activity,Echinochloa oryzicola [21],100%
COCCN(C(=O)CCl)C(=C(C)C)c1cc(C)ccc1C,Activity,[13],100%
same,Activity,Pontederia vaginalis [14],100%
same,Activity,[15],100%
same,Activity,Cyperus difformis [16],100%
same,Activity,[17],80%
same,Activity,Cyperus difformis [18],80%
same,Activity,[22],20%
same,Activity,Echinochloa oryzicola [19],100%
same,Activity,Pontederia vaginalis [20],40%
same,Activity,Echinochloa oryzicola [21],100%
COCCN(C(=O)CCl)C(=C(C)C)c1ccc(Cl)cc1,Activity,[13],100%
same,Activity,Pontederia vaginalis [14],100%
same,Activity,[15],100%
same,Activity,Cyperus difformis [16],100%
same,Activity,[17],80%
same,Activity,Cyperus difformis [18],100%
same,Activity,[22],100%
same,Activity,Echinochloa oryzicola [19],100%
same,Activity,Pontederia vaginalis [20],100%
same,Activity,Echinochloa oryzicola [21],100%
CCC(C)=C(c1ccccc1)N(CCOC)C(=O)CCl,Activity,[13],100%
same,Activity,Pontederia vaginalis [14],100%
same,Activity,[15],100%
same,Activity,Cyperus difformis [16],100%
same,Activity,[17],0%
same,Activity,Cyperus difformis [18],80%
same,Activity,[22],40%
same,Activity,Echinochloa oryzicola [19],80%
same,Activity,Pontederia vaginalis [20],0%
same,Activity,Echinochloa oryzicola [21],100%
C#CCOCCN(C(=O)CCl)C(=C(C)C)c1ccccc1,Activity,[13],100%
same,Activity,Pontederia vaginalis [14],100%
same,Activity,[15],100%
same,Activity,Cyperus difformis [16],100%
same,Activity,[17],80%
same,Activity,Cyperus difformis [18],100%
same,Activity,[22],100%
same,Activity,Echinochloa oryzicola [19],100%
same,Activity,Pontederia vaginalis [20],100%
same,Activity,Echinochloa oryzicola [21],100%
COCCN(C(=O)CCl)C(=C(C)C)c1ccccc1,Activity,[13],100%
same,Activity,Poa annua [1],100%
same,Activity,[2],60%
same,Activity,Poa annua [3],100%
same,Activity,Pontederia vaginalis [14],100%
same,Activity,Setaria viridis [4],100%
same,Activity,[15],100%
same,Activity,Kummerowia striata [5],80%
same,Activity,Setaria viridis [6],80%
same,Activity,Kummerowia striata [7],80%
same,Activity,Digitaria ciliaris [8],100%
same,Activity,Cyperus difformis [16],100%
same,Activity,Stellaria media [9],80%
same,Activity,[17],100%
same,Activity,Stellaria media [10],60%
same,Activity,Cyperus difformis [18],100%
same,Activity,Digitaria ciliaris [11],100%
same,Activity,[22],100%
same,Activity,Echinochloa oryzicola [19],100%
same,Activity,[12],100%
same,Activity,Pontederia vaginalis [20],100%
same,Activity,Echinochloa oryzicola [21],100%
CCc1cccc(C)c1N(C(=O)CCl)C(C)COC (configuration not stated) [METOLACHOR],Activity,Poa annua [1],100%
same,Activity,[2],100%
same,Activity,Poa annua [3],80%
same,Activity,Setaria viridis [4],100%
same,Activity,Kummerowia striata [5],80%
same,Activity,Setaria viridis [6],80%
same,Activity,Kummerowia striata [7],100%
same,Activity,Digitaria ciliaris [8],100%
same,Activity,Stellaria media [9],60%
same,Activity,Stellaria media [10],60%
same,Activity,Digitaria ciliaris [11],100%
same,Activity,[12],80%
COCCN(C(=O)CCl)C(=C(C)C)c1cccc(C)c1,Activity,[13],100%
same,Activity,Pontederia vaginalis [14],100%
same,Activity,[15],100%
same,Activity,Cyperus difformis [16],100%
same,Activity,[17],100%
same,Activity,Cyperus difformis [18],100%
same,Activity,[22],100%
same,Activity,Echinochloa oryzicola [19],100%
same,Activity,Pontederia vaginalis [20],100%
same,Activity,Echinochloa oryzicola [21],100%
COCCN(C(=O)CCl)C(=C(C)C)c1cccc(Cl)c1,Activity,[13],100%
same,Activity,Pontederia vaginalis [14],100%
same,Activity,[15],100%
same,Activity,Cyperus difformis [16],100%
same,Activity,[17],80%
same,Activity,Cyperus difformis [18],80%
same,Activity,[22],80%
same,Activity,Echinochloa oryzicola [19],80%
same,Activity,Pontederia vaginalis [20],60%
same,Activity,Echinochloa oryzicola [21],100%
COCCN(C(=O)CCl)C(=C(C)C)c1cccc(Oc2ccccc2)c1,Activity,[13],60%
same,Activity,Pontederia vaginalis [14],100%
same,Activity,[15],100%
same,Activity,Cyperus difformis [16],100%
same,Activity,[17],60%
same,Activity,Cyperus difformis [18],80%
same,Activity,[22],40%
same,Activity,Echinochloa oryzicola [19],100%
same,Activity,Pontederia vaginalis [20],0%
same,Activity,Echinochloa oryzicola [21],100%
COCCN(C(=O)CCl)C(=C(C)C)c1ccc(OC)cc1,Activity,[13],100%
same,Activity,Pontederia vaginalis [14],100%
same,Activity,[15],100%
same,Activity,Cyperus difformis [16],100%
same,Activity,[17],80%
same,Activity,Cyperus difformis [18],100%
same,Activity,[22],0%
same,Activity,Echinochloa oryzicola [19],80%
same,Activity,Pontederia vaginalis [20],80%
same,Activity,Echinochloa oryzicola [21],100%
C=CCOCC(C)N(C(=O)CCl)C(=C(C)C)c1ccccc1 (configuration not stated),Activity,[13],100%
same,Activity,Pontederia vaginalis [14],100%
same,Activity,[15],100%
same,Activity,Cyperus difformis [16],100%
same,Activity,[17],60%
same,Activity,Cyperus difformis [18],60%
same,Activity,[22],100%
same,Activity,Echinochloa oryzicola [19],40%
same,Activity,Pontederia vaginalis [20],40%
same,Activity,Echinochloa oryzicola [21],100%
